Measurements reported in patent US5945438A, “Triazole derivative and pharmaceutical comprising the same as an effective ingredient” (SS Pharmaceutical Co., Ltd., priority 1995, dated 1999).
Values after ≈ are worked out from the molar mass of the structure shown. Read-outs that look alike come from different tables or passages of the source.

Legend:
C. albicans ATCC 44859 = assay: In vitro antifungal activity against Candida albicans; type: cell-based; settings: C. albicans controlled to a yeast-type (no hyphal growth), Eagle's MEM medium with 10% serum, 2.0×10^4 cells/ml, 37° C.; for MIC: Candida albicans, read-out: Minimum inhibitory concentration
Description: In vitro antifungal activity against Candida albicans
Incubation was then conducted at 37° C. for 20 hours using a CO2 gas incubator.

A. fumigatus IFM 40808 = assay: In vitro antifungal activity against Aspergillus fumigatus; type: cell-based; settings: RPMI MEDIUM 1640, pH 7, 3.0×10^4 cells/ml, 35° C.; for MIC: Aspergillus fumigatus, read-out: Minimum inhibitory concentration
Description: In vitro antifungal activity against Aspergillus fumigatus
Incubation was then conducted at 35° C. for 24 hours.

[1] = IFM40808, 24 h, pH 7, growth of about 75% of hyphae inhibited
[2] = growth of about 75% of hyphae inhibited, 24 hours

SMILES | Minimum inhibitory concentration (C. albicans ATCC 44859; 20 hours) [µg/mL] | MIC (A. fumigatus IFM 40808; [1]) [µg/mL] | MIC (C. albicans ATCC 44859; ATCC44859, 20 h) [µg/mL] | also measured
CS(=O)(=O)C(F)(F)C(O)(Cn1cncn1)c1ccc(F)cc1 (single isomer, unassigned; (+)) [(+)-Compound(1c-2), (+)-3,3-difluoro-2-(4'-fluorophenyl)-3-methylsulfonyl-1-(1H-1,2,4-triazol-1-yl)propan-2-ol] | > 1 | > 64 | – | –
CS(=O)(=O)C(F)(F)C(O)(Cn1cncn1)c1ccc(Cl)cc1Cl (single isomer, unassigned; (+)) [(+)-Compound(1c-3), (+)-2-(2',4'-dichlorophenyl)-3,3-difluoro-3-methylsulfonyl-1-(1H-1,2,4-triazol-1-yl)propan-2-ol] | > 1 | – | – | Minimum inhibitory concentration (A. fumigatus IFM 40808; [2]): > 64 µg/mL
CSC(F)(F)C(O)(Cn1cncn1)c1ccc(C(F)(F)F)cc1 (stereo not drawn) [Compound(1a-4), 3,3-difluoro-3-methylthio-1-(1H-1,2,4-triazol-1-yl)-2-[4'-(trifluoromethyl)phenyl]propan-2-ol] | – | 16 (≈ 45.3 µM) | 0.0156 (≈ 0.0442 µM) | –
CS(=O)(=O)C(F)(F)C(O)(Cn1cncn1)c1ccccc1 (stereo not drawn) [Compound(1c-5), 3,3-difluoro-3-methylsulfonyl-2-phenyl-1-(1H-1,2,4-triazol-1-yl)propan-2-ol] | – | > 64 | 0.5 (≈ 1.58 µM) | –
CS(=O)(=O)C(F)(F)C(O)(Cn1cncn1)c1ccc(C(F)(F)F)cc1 (single isomer, unassigned; (-)) [(-)-Compound(1c-4), (-)-3,3-difluoro-3-methylsulfonyl-1-(1H-1,2,4-triazol-1-yl)-2-(4'-(trifluoromethyl)phenyl]propan-2-ol] | 0.0625 (≈ 0.162 µM) | – | – | Minimum inhibitory concentration (A. fumigatus IFM 40808; [2]): > 64 µg/mL
CS(=O)(=O)C(F)(F)C(O)(Cn1cncn1)c1ccc(F)cc1 (racemic) [Compound(1c-2), 3,3-difluoro-2-(4'-fluorophenyl)-3-methylsulfonyl-1-(1H-1,2,4-triazol-1-yl)propan-2-ol] | – | > 64 | 0.25 (≈ 0.746 µM) | –
CS(=O)(=O)C(F)(F)C(O)(Cn1cncn1)c1ccc(F)cc1F (single isomer, unassigned; (+)) [(+)-Compound(1c-1), (+)-3,3-difluoro-2-(2',4'-difluorophenyl)-3-methylsulfonyl-1-(1H-1,2,4-triazol-1-yl)propan-2-ol] | > 1 | – | – | Minimum inhibitory concentration (A. fumigatus IFM 40808; [2]): > 64 µg/mL
CS(=O)(=O)C(F)(F)C(O)(Cn1cncn1)c1ccc(F)cc1F (stereo not drawn) [Compound (1c-1), 3,3-difluoro-2-(2',4'-difluorophenyl)-3-methylsulfonyl-1-(1H-1,2,4-triazol-1-yl)propan-2-ol] | – | 32 (≈ 90.6 µM) | 0.0625 (≈ 0.177 µM) | –
CSC(F)(F)C(O)(Cn1cncn1)c1ccccc1 (stereo not drawn) [Compound(1a-5), 3,3-difluoro-3-methylthio-2-phenyl-1-(1H-1,2,4-triazol-1-yl)propan-2-ol] | – | 16 (≈ 56.1 µM) | 0.125 (≈ 0.438 µM) | –
C[S+]([O-])C(F)(F)C(O)(Cn1cncn1)c1ccc(F)cc1F (single isomer, unassigned) [Compound(1b-1B), 3,3-difluoro-2-(2',4'-difluorophenyl)-3-methylsulfinyl-1-(1H-1,2,4-triazol-1-yl)propan-2-ol] | 0.5 (≈ 1.48 µM) | – | – | Minimum inhibitory concentration (A. fumigatus IFM 40808; [2]): > 64 µg/mL
CSC(F)(F)C(O)(Cn1cncn1)c1ccc(F)cc1F (racemic) [Compound(1a-1), 3,3-difluoro-2-(2',4'-difluorophenyl)-3-methylthio-1-(1H-1,2,4-triazol-1-yl)propan-2-ol] | – | 4 (≈ 12.4 µM) | 0.0078 (≈ 0.0243 µM) | –
CS(=O)(=O)C(F)(F)C(O)(Cn1cncn1)c1ccc(Cl)cc1Cl (stereo not drawn) [Compound(1c-3), 2-(2',4'-dichlorophenyl)-3,3-difluoro-3-methylsulfonyl-1-(1H-1,2,4-triazol-1-yl)propan-2-ol] | – | 32 (≈ 82.9 µM) | 0.0313 (≈ 0.081 µM) | –
CS(=O)(=O)C(F)(F)C(O)(Cn1cncn1)c1ccc(F)cc1 (single isomer, unassigned; (-)) [(-)-Compound(1c-2), (-)-3,3-difluoro-2-(4'-fluorophenyl)-3-methylsulfonyl-1-(1H-1,2,4-triazol-1-yl)propan-2-ol] | 0.0625 (≈ 0.186 µM) | – | – | Minimum inhibitory concentration (A. fumigatus IFM 40808; [2]): 64 µg/mL (≈ 191 µM)
C[S+]([O-])C(F)(F)C(O)(Cn1cncn1)c1ccc(F)cc1F (single isomer, unassigned) [Compound(1b-1A), 3,3-difluoro-2-(2',4'-difluorophenyl)-3-methylsulfinyl-1-(1H-1,2,4-triazol-1-yl)propan-2-ol] | 0.0625 (≈ 0.185 µM) | 64 (≈ 190 µM) | – | –
CS(=O)(=O)C(F)(F)C(O)(Cn1cncn1)c1ccc(Cl)cc1Cl (single isomer, unassigned; (-)) [(-)-Compound(1c-3), (-)-2-(2',4'-dichlorophenyl)-3,3-difluoro-3-methylsulfonyl-1-(1H-1,2,4-triazol-1-yl)propan-2-ol] | 0.0078 (≈ 0.0202 µM) | 32 (≈ 82.9 µM) | – | –
CS(=O)(=O)C(F)(F)C(O)(Cn1cncn1)c1ccc(F)cc1F (single isomer, unassigned; (-)) [(-)-Compound(1c-1), (-)-3,3-difluoro-2-(2',4'-difluorophenyl)-3-methylsulfonyl-1-(1H-1,2,4-triazol-1-yl)propan-2-ol] | 0.0313 (≈ 0.0886 µM) | – | – | Minimum inhibitory concentration (A. fumigatus IFM 40808; [2]): 16 µg/mL (≈ 45.3 µM)
OC(Cn1cncn1)(Cn1cncn1)c1ccc(F)cc1F [Fluconazole, reference compound] | – | – | – | MIC (C. albicans ATCC 44859; ATCC44859, 20 hours): 0.25 µg/mL (≈ 0.816 µM); MIC (A. fumigatus IFM 40808; IFM40808, growth of about 75% of hyphae inhibited, 24 hours): > 64 µg/mL
CS(=O)(=O)C(F)(F)C(O)(Cn1cncn1)c1ccc(C(F)(F)F)cc1 (racemic) [Compound(1c-4), 3,3-difluoro-3-methylsulfonyl-1-(1H-1,2,4-triazol-1-yl)-2-[4'-(trifluoromethyl)phenyl]propan-2-ol] | – | > 64 | 0.125 (≈ 0.324 µM) | –
CSC(F)(F)C(O)(Cn1cncn1)c1ccc(Cl)cc1Cl (racemic) [Compound(1a-3), 2-(2',4'-dichlorophenyl)-3,3-difluoro-3-methylthio-1-(1H-1,2,4-triazol-1-yl)propan-2-ol] | – | 2 (≈ 5.65 µM) | 0.0039 (≈ 0.011 µM) | –
CS(=O)(=O)C(F)(F)C(O)(Cn1cncn1)c1ccc(C(F)(F)F)cc1 (single isomer, unassigned; (+)) [(+)-Compound(1c-4), (+)-3,3-difluoro-3-methylsulfonyl-1-(1H-1,2,4-triazol-1-yl)-2-[4'-(trifluoromethyl)phenyl]propan-2-ol] | > 1 | > 64 | – | –
CSC(F)(F)C(O)(Cn1cncn1)c1ccc(F)cc1 (stereo not drawn) [Compound(1a-2), 3,3-difluoro-2-(4'-fluorophenyl)-3-methylthio-1-(1H-1,2,4-triazol-1-yl)propan-2-ol] | – | 16 (≈ 52.8 µM) | 0.0625 (≈ 0.206 µM) | –
